Measured values published in US9828379B2 (priority 2013, dated 2017).

Key:
Assay in all cases: In vitro competitive activity-based protein profiling (Table 2, % inhibition at 1 μM)
Type in all cases: biochemical
[1] = molecular target: T1, ABHD6 (Mus musculus, UniProt Q8R2Y0); conditions: read-out: % Inhibition at 1 μM ABHD6
T1 sequence (Q8R2Y0 1-336): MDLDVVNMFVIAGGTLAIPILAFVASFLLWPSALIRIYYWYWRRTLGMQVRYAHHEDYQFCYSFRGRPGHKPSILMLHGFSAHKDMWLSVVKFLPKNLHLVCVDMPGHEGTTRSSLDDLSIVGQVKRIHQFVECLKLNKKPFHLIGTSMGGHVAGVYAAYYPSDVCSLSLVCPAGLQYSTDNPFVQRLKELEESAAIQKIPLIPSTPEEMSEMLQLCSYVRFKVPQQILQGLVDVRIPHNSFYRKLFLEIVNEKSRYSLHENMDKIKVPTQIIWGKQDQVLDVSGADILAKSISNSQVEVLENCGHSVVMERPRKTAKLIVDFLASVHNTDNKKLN
Description: (§1) After 30 min, FP—Rh (1.0 μL, 50 μM in DMSO) was added and the mixture was incubated for another 30 min at 37° C. Reactions were quenched with SDS loading buffer (50 μL-4×) and run on SDS-PAGE. Following gel imaging, serine hydrolase activity was determined by measuring fluorescent intensity of gel bands corresponding to MAGL, ABHD6 and FAAH using ImageJ 1.43 u software.
(§2) hMAGL was expressed in HEK293T cells according to previously reported methods (see Niphakis, Long, and Blankman, J. L., et al. (2007) Chem. Biol. 14:1347-1356). Cell lysates were diluted with mock proteomes for use in competitive ABPP experiments.

[2] = molecular target: T2, FAAH (Mus musculus, UniProt O08914); conditions: read-out: % Inhibition at 1 μM FAAH
T2 sequence (O08914 1-579): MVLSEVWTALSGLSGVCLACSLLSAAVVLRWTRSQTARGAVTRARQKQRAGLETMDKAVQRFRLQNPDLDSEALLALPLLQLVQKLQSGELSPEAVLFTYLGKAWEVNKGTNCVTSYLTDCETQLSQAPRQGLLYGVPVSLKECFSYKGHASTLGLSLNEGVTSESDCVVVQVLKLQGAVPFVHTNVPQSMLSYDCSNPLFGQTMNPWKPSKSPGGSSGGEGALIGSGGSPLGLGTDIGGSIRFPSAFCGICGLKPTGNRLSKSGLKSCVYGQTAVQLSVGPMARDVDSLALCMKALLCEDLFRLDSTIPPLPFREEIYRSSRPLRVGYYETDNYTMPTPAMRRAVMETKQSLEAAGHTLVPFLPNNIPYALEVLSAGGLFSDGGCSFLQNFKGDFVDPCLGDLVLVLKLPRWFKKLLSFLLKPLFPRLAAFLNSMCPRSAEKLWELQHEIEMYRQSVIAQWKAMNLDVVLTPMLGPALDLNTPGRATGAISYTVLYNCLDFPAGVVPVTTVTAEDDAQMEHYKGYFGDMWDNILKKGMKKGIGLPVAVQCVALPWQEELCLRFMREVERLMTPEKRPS
Description: as §1, §2

[3] = molecular target: T3, MAGL (Mus musculus, UniProt O35678); conditions: read-out: % Inhibition at 1 μM MAGL
T3 sequence (O35678 1-303): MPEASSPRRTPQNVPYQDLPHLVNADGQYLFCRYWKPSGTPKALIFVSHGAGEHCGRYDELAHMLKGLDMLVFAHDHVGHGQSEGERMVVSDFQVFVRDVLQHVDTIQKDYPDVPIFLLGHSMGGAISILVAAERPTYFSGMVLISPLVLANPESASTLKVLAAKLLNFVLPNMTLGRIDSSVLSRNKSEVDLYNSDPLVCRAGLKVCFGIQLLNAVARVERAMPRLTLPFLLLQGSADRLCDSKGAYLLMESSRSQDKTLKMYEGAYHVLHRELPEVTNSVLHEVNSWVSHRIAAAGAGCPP
Description: After 30 min, FP—Rh (1.0 μL, 50 μM in DMSO) was added and the mixture was incubated for another 30 min at 37° C. Reactions were quenched with SDS loading buffer (50 μL-4×) and run on SDS-PAGE.
Cell lysates were diluted with mock proteomes for use in competitive ABPP experiments.

Structure (SMILES)	inhibition at 1 µM [1] [%]	inhibition at 1 µM [2] [%]	inhibition at 1 µM [3] [%]
O=C(ON1C(=O)CCC1=O)N1CC2CN(Cc3ccc(Cl)cc3N3Cc4cccnc4C3)CC2C1 (centres unmarked) [Example 107, 2,5-Dioxopyrrolidin-1-yl 5-[(4-chloro-2-[5H,6H,7H-pyrrolo[3,4-b]pyridin-6-yl]phenyl)methyl]-octahydropyrrolo[3,4-c]pyrrole-2-carboxylate]	25 to 75	25 to 75	25 to 75
CCn1cc(CN2CC3CN(C(=O)OC(C(F)(F)F)C(F)(F)F)CC3C2)c(C(=O)N2CCOCC2)n1 (centres unmarked) [Example 76, 1,1,1,3,3,3-Hexafluoropropan-2-yl 5-((1-ethyl-3-(morpholine-4-carbonyl)-1H-pyrazol-4-yl)methyl)hexahydropyrrolo[3,4-c]pyrrole-2(1H)-carboxylate]	< 25	< 25	25 to 75
CCN1CCN(c2cccc(CN3CC4CN(C(=O)ON5C(=O)CCC5=O)CC4C3)c2C)CC1 (centres unmarked) [Example 146]	< 25	< 25	25 to 75
Cn1cc(CN2CC3CN(C(=O)OC(C(F)(F)F)C(F)(F)F)CC3C2)c(C2CCN(S(C)(=O)=O)CC2)n1 (centres unmarked) [Example 56, 1,1,1,3,3,3-Hexafluoropropan-2-yl 5-[[3-(1-methanesulfonylpiperidin-4-yl)-1-methyl-1H-pyrazol-4-yl]methyl]-octahydropyrrolo[3,4-c]pyrrole-2-carboxylate]	< 25	< 25	> 75
Cn1nc(-c2cccc(F)c2)cc1CN1CC2CN(C(=O)ON3C(=O)CCC3=O)CC2C1 (centres unmarked) [Example 198, 2,5-dioxopyrrolidin-1-yl 5-((3-(3-fluorophenyl)-1-methyl-1H-pyrazol-5-yl)methyl)hexahydropyrrolo[3,4-c]pyrrole-2(1H)-carboxylate]	< 25	< 25	< 25
CC(=O)NC1CCN(c2cccc(CN3CC4CN(C(=O)ON5C(=O)CCC5=O)CC4C3)c2C)CC1 (centres unmarked) [Example 142, 2,5-dioxopyrrolidin-1-yl 5-[[3-(4-acetamidopiperidin-1-yl)-2-methylphenyl]methyl]-octahydropyrrolo[3,4-c]pyrrole-2-carboxylate]	< 25	< 25	< 25
O=C(ON1C(=O)CCC1=O)N1CC2CN(Cc3ccc(C(=O)N4CCOCC4)cc3Cl)CC2C1 (centres unmarked) [Example 163, 2,5-dioxopyrrolidin-1-yl 5-(2-chloro-4-(morpholine-4-carbonyl)benzyl)-hexahydropyrrolo[3,4-c]pyrrole-2(1H)-carboxylate]	< 25	< 25	< 25
CC(C)n1cc(CN2CC3CN(C(=O)ON4C(=O)CCC4=O)CC3C2)c(C2CCN(S(C)(=O)=O)CC2)n1 (centres unmarked) [Example 120, 2,5-Dioxopyrrolidin-1-yl 5-[[3-(1-methanesulfonylpiperidin-4-yl)-1-(propan-2-yl)-1H-pyrazol-4-yl]methyl]-octahydropyrrolo[3,4-c]pyrrole-2-carboxylate]	< 25	< 25	< 25
O=C(OC(C(F)(F)F)C(F)(F)F)N1CC2CN(Cc3ccc(C(=O)N4CCOCC4)c(OC(F)(F)F)c3)CC2C1 (centres unmarked) [Example 191, 1,1,1,3,3,3-hexafluoropropan-2-yl 5-(4-(morpholine-4-carbonyl)-3-(trifluoromethoxy)benzyl)hexahydropyrrolo[3,4-c]pyrrole-2(1H)-carboxylate]	< 25	< 25	< 25
Cc1cccc(CN2CC3CN(C(=O)ON4C(=O)CCC4=O)CC3C2)c1N1CCN(C)CC1 (centres unmarked) [Example 138, 2,5-dioxopyrrolidin-1-yl 5-[[3-methyl-2-(4-methylpiperazin-1-yl)phenyl]methyl]-octahydropyrrolo[3,4-c]pyrrole-2-carboxylate]	< 25	< 25	< 25
CC(=O)N1CCC(c2nn(C)cc2CN2CC3CN(C(=O)OC(C(F)(F)F)C(F)(F)F)CC3C2)CC1 (centres unmarked) [Example 52, 1,1,1,3,3,3-Hexafluoropropan-2-yl 5-[[3-(1-acetylpiperidin-4-yl)-1-methyl-1H-pyrazol-4-yl]methyl]-octahydropyrrolo[3,4-c]pyrrole-2-carboxylate]	< 25	< 25	25 to 75
Cn1nc(-c2ccccc2)cc1CN1CC2CN(C(=O)ON3C(=O)CCC3=O)CC2C1 (centres unmarked) [Example 197, 2,5-dioxopyrrolidin-1-yl 5-((1-methyl-3-phenyl-1H-pyrazol-5-yl)methyl)hexahydropyrrolo[3,4-c]pyrrole-2(1H)-carboxylate]	< 25	< 25	< 25
CC(=O)N1CCC(n2nc(C)cc2CN2CC3CN(C(=O)ON4C(=O)CCC4=O)CC3C2)CC1 (centres unmarked) [Example 122, 2,5-Dioxopyrrolidin-1-yl 5-[[1-(1-acetylpiperidin-4-yl)-3-methyl-1H-pyrazol-5-yl]methyl]-octahydropyrrolo[3,4-c]pyrrole-2-carboxylate]	< 25	< 25	< 25
CC1COCCN1c1cc(F)ccc1CN1CC2CN(C(=O)ON3C(=O)CCC3=O)CC2C1 (centres unmarked) [Example 91, 2,5-Dioxopyrrolidin-1-yl 5-[[4-fluoro-2-(3-methylmorpholin-4-yl)phenyl]methyl]-octahydropyrrolo[3,4-c]pyrrole-2-carboxylate]	< 25	< 25	< 25
Cn1cc(CN2CC3CN(C(=O)ON4C(=O)CCC4=O)CC3C2)c(-c2ccccc2Cl)n1 (centres unmarked) [Example 115, 2,5-Dioxopyrrolidin-1-yl 5-[[3-(2-chlorophenyl)-1-methyl-1H-pyrazol-4-yl]methyl]-octahydropyrrolo[3,4-c]pyrrole-2-carboxylate]	< 25	< 25	25 to 75
CC(=O)N1CCN(c2ccc(CN3CC4CN(C(=O)ON5C(=O)CCC5=O)CC4C3)c(F)c2)CC1 (centres unmarked) [Example 101, 2,5-Dioxopyrrolidin-1-yl 5-[[4-(4-acetylpiperazin-1-yl)-2-fluorophenyl]methyl]-octahydropyrrolo[3,4-c]pyrrole-2-carboxylate]	< 25	< 25	< 25
CC1COCCN1c1ccc(CN2CC3CN(C(=O)ON4C(=O)CCC4=O)CC3C2)c(F)c1 (centres unmarked) [Example 100, 2,5-Dioxopyrrolidin-1-yl 5-[[2-fluoro-4-(3-methylmorpholin-4-yl)phenyl]methyl]-octahydropyrrolo[3,4-c]pyrrole-2-carboxylate]	< 25	< 25	25 to 75
O=C(ON1C(=O)CCC1=O)N1CC2CN(Cc3ccc(C(=O)N4CCCC4)cc3F)CC2C1 (centres unmarked) [Example 167, 2,5-dioxopyrrolidin-1-yl5-(2-fluoro-4-(pyrrolidine-1-carbonyl)benzyl)-hexahydropyrrolo[3,4-c]pyrrole-2(1H)-carboxylate]	< 25	–	–
O=C(ON1C(=O)CCC1=O)N1CC2CN(Cc3ccc(C(=O)N4CCC4)cc3F)CC2C1 (centres unmarked) [Example 168, 2,5-dioxopyrrolidin-1-yl5-(4-(azetidine-1-carbonyl)-2-fluorobenzyl)-hexahydropyrrolo[3,4-c]pyrrole-2(1H)-carboxylate]	< 25	–	–
